In patent US9944647B2 (Incyte Corporation, priority 2015, dated 2018):
pIC50: −log10 of the molar value.

target: LSD-1 enzyme (Homo sapiens (Human), UniProt O60341); test: LANCE LSD1/KDM1A demethylase assay (LSD1 histone demethylase biochemical assay); conditions: 1 nM LSD-1 enzyme, 1 hour preincubation at 25° C., Biotin-labeled Histone H3 peptide substrate
Description: Example A: LSD1 Histone Demethylase Biochemical Assay
LANCE LSD1/KDM1A demethylase assay—10 μL of 1 nM LSD-1 enzyme (ENZO BML-SE544-0050) in the assay buffer (50 mM Tris, pH 7.5, 0.01% Tween-20, 25 mM NaCl, 5 mM DTT) were preincubated for 1 hour at 25° C. with 0.8 μL compound/DMSO dotted in black 384 well polystyrene plates. […] Reactions were stopped by addition of 10 μL 1×LANCE Detection Buffer (PerkinElmer CR97-100) supplemented with 1.5 nM Eu-anti-unmodified H3K4 Antibody (PerkinElmer TRF0404), and 225 nM LANCE Ultra Streptavidin (PerkinElmer TRF102) along with 0.9 mM Tranylcypromine-HCl (Millipore 616431). After stopping the reactions plates were incubated for 30 minutes and read on a PHERAstar FS plate reader (BMG Labtech).

`CN1CCC[C@@H](COc2nc(-c3ccc(C#N)cc3)c(-c3cnc4c(c3)OCCN4C)c3nccn23)C1` [Example 14, 4-(8-(4-methyl-3,4-dihydro-2H-pyrido[3,2-b][1,4]oxazin-7-yl)-5-{[(3R)-1-methylpiperidin-3-yl]methoxy}imidazo[1,2-c]pyrimidin-7-yl)benzonitrile] and `CN1CCC[C@@H](COc2nc(-c3ccc(C#N)cc3)c(-c3cnc4c(cnn4C)c3)c3nccn23)C1` [Example 28, 4-[5-{[(3R)-1-methylpiperidin-3-yl]methoxy}-8-(1-methyl-1H-pyrazolo[3,4-b]pyridin-5-yl)imidazo [1,2-c]pyrimidin-7-yl]benzonitrile] cannot be ordered by pIC50: ≥ 7.30 for the first, ≥ 7.30 for the second.

`CN(C)C1CCN(c2nc(-c3ccc(C#N)cc3)c(-c3ccc4c(c3F)n(C)c(=O)n4C)c3nccn23)CC1` [Example 127, 4-[5-[4-(dimethylamino)piperidin-1-yl]-8-(4-fluoro-1,3-dimethyl-2-oxo-2,3-dihydro-1H-benzimidazol-5-yl)imidazo[1,2-c]pyrimidin-7-yl]benzonitrile] and `Cc1cc(-c2c(-c3ccc(C#N)cc3)nc(N3CCC(N(C)C)CC3)n3ccnc23)ccc1CO` [Example 91, 4-{5-[4-(dimethylamino)piperidin-1-yl]-8-[4-(hydroxymethyl)-3-methylphenyl]imidazo[1,2-c]pyrimidin-7-yl}benzonitrile] cannot be ordered by pIC50: ≥ 7.30 for the first, ≥ 7.30 for the second.

`CCN1CCC[C@@H](COc2nc(-c3ccc(C#N)cc3)c(-c3cnc4c(cnn4C)c3)c3nccn23)C1` [Example 29, 4-[5-{[(3R)-1-ethylpiperidin-3-yl]methoxy}-8-(1-methyl-1H-pyrazolo[3,4-b]pyridin-5-yl)imidazo[1,2-c]pyrimidin-7-yl]benzonitrile] and `C[C@H](O)CN1CCC[C@@H](COc2nc(-c3ccc(C#N)cc3)c(-c3cnc4c(cnn4C)c3)c3nccn23)C1` [Example 137, 4-[5-({(3R)-1-[(2S)-2-hydroxypropyl]piperidin-3-yl}methoxy)-8-(1-methyl-1H-pyrazolo[3,4-b]pyridin-5-yl)imidazo[1,2-c]pyrimidin-7-yl]benzonitrile] cannot be ordered by pIC50: ≥ 7.30 for the first, ≥ 7.30 for the second.

`CN(C)C1CCN(c2nc(-c3ccc(C#N)cc3)c(-c3cnc4c(cnn4C)c3)c3nccn23)CC1` [Example 37, 4-[5-[4-(dimethylamino)piperidin-1-yl]-8-(1-methyl-1H-pyrazolo[3,4-b]pyridin-5-yl)imidazo[1,2-c]pyrimidin-7-yl]benzonitrile] and `Cc1ccc(-c2c(-c3ccc(C#N)cc3)nc(N3CCC(N(C)C)CC3)n3ccnc23)cn1` [Example 112, 4-[5-[4-(dimethylamino)piperidin-1-yl]-8-(6-methylpyridin-3-yl)imidazo[1,2-c]pyrimidin-7-yl]benzonitrile] cannot be ordered by pIC50: ≥ 7.30 for the first, 6.30 to 7.30 for the second.

`CCN1CCC[C@@H](COc2nc(-c3ccc(C#N)cc3)c(-c3ccc(C)c(CO)c3)c3nccn23)C1` [Example 99, 4-{5-{[(3R)-1-ethylpiperidin-3-yl]methoxy}-8-[3-(hydroxymethyl)-4-methylphenyl]imidazo[1,2-c]pyrimidin-7-yl}benzonitrile] and `Cc1ccc(-c2c(-c3ccc(C#N)cc3)nc(OC[C@@H]3CCCN(C)C3)n3ccnc23)cc1C(C)O` (stereo partly drawn) [Example 93, 4-(8-[3-(1-hydroxyethyl)-4-methylphenyl]-5-{[(3R)-1-methylpiperidin-3-yl]methoxy}imidazo[1,2-c]pyrimidin-7-yl)benzonitrile] cannot be ordered by pIC50: ≥ 7.30 for the first, ≥ 7.30 for the second.

`CN(C)c1ncc(-c2c(-c3ccc(C#N)cc3)nc(N3CCC(N(C)C)CC3)n3ccnc23)cc1F` [Example 82, 4-{8-[6-(dimethylamino)-5-fluoropyridin-3-yl]-5-[4-(dimethylamino)piperidin-1-yl]imidazo[1,2-c]pyrimidin-7-yl}benzonitrile] and `Cc1ncc(-c2c(-c3ccc(C#N)cc3)nc(N3CCC(N(C)C)CC3)n3ccnc23)cc1C(F)F` [Example 132, 4-{8-[5-(difluoromethyl)-6-methylpyridin-3-yl]-5-[4-(dimethylamino)piperidin-1-yl]imidazo[1,2-c]pyrimidin-7-yl}benzonitrile] cannot be ordered by pIC50: ≥ 7.30 for the first, 6.30 to 7.30 for the second.

`CN1CCC[C@@H](COc2nc(-c3ccc(C#N)cc3)c(-c3ccc4c(c3)OC(=O)N(C)C4)c3nccn23)C1` [Example 43, 4-(8-(3-methyl-2-oxo-3,4-dihydro-2H-1,3-benzoxazin-7-yl)-5-{[(3R)-1-methylpiperidin-3-yl]methoxy}imidazo[1,2-c]pyrimidin-7-yl)benzonitrile] and `CN1CCC[C@@H](COc2nc(-c3ccc(C#N)cc3)c(-c3ccc4cnn(C)c4c3)c3nccn23)C1` [Example 18, 4-(8-(1-methyl-1H-indazol-6-yl)-5-{[(3R)-1-methylpiperidin-3-yl]methoxy}imidazo[1,2-c]pyrimidin-7-yl)benzonitrile] cannot be ordered by pIC50: ≥ 7.30 for the first, 6.30 to 7.30 for the second.

`CN1CCC[C@@H](COc2nc(-c3ccc(C#N)cc3)c(-c3ccc(CN4CCOCC4)cc3)c3nccn23)C1` [Example 12, 4-{5-{[(3R)-1-methylpiperidin-3-yl]methoxy}-8-[4-(morpholin-4-ylmethyl)phenyl]imidazo[1,2-c]pyrimidin-7-yl}benzonitrile] and `CN1CC[C@@H](COc2nc(-c3ccc(C#N)cc3)c(-c3ccc4c(c3)oc(=O)n4C)c3nccn23)C1` [Example 26, 4-(8-(3-methyl-2-oxo-2,3-dihydro-1,3-benzoxazol-6-yl)-5-{[(3R)-1-methylpyrrolidin-3-yl]methoxy}imidazo[1,2-c]pyrimidin-7-yl)benzonitrile] fall in the same range of pIC50: 6.30 to 7.30 for the first, 6.30 to 7.30 for the second.

`Cn1ncc2cc(-c3c(-c4ccc(C#N)cc4)nc(OC[C@@H]4CCCN(CCC#N)C4)n4ccnc34)cnc21` [Example 33, 4-[5-{[(3R)-1-(2-cyanoethyl)piperidin-3-yl]methoxy}-8-(1-methyl-1H-pyrazolo[3,4-b]pyridin-5-yl)imidazo[1,2-c]pyrimidin-7-yl]benzonitrile] and `COc1ncc(-c2c(-c3ccc(C#N)cc3)nc(OC[C@@H]3CCCN(CCC#N)C3)n3ccnc23)cc1F` [Example 81, 4-[5-{[(3R)-1-(2-cyanoethyl)piperidin-3-yl]methoxy}-8-(5-fluoro-6-methoxypyridin-3-yl)imidazo[1,2-c]pyrimidin-7-yl]benzonitrile] cannot be ordered by pIC50: ≥ 7.30 for the first, 6.30 to 7.30 for the second.

`CN(C)C1CCN(c2nc(-c3ccc(C#N)cc3)c(-c3ccc4c(c3)C(O)CC4)c3nccn23)CC1` (stereo not shown) [Example 121, 4-[5-[4-(dimethylamino)piperidin-1-yl]-8-(3-hydroxy-2,3-dihydro-1H-inden-5-yl)imidazo[1,2-c]pyrimidin-7-yl]benzonitrile] and `COc1ccc(-c2c(-c3ccc(C#N)cc3)nc(N3CCC(N(C)C)CC3)n3ccnc23)cn1` [Example 48, 4-[5-[4-(dimethylamino)piperidin-1-yl]-8-(6-methoxypyridin-3-yl)imidazo[1,2-c]pyrimidin-7-yl]benzonitrile] cannot be ordered by pIC50: ≥ 7.30 for the first, 6.30 to 7.30 for the second.

`COc1ncc(-c2c(-c3ccc(C#N)cc3)nc(N3CCC(N(C)C)CC3)n3ccnc23)cc1Cl` [Example 104, 4-{8-(5-chloro-6-methoxypyridin-3-yl)-5-[4-(dimethylamino)piperidin-1-yl]imidazo[1,2-c]pyrimidin-7-yl}benzonitrile] and `CN1CC[C@@H](COc2nc(-c3ccc(C#N)cc3)c(-c3ccc4c(cnn4C)c3)c3nccn23)C1` [Example 27, 4-(8-(1-methyl-1H-indazol-5-yl)-5-{[(3R)-1-methylpyrrolidin-3-yl]methoxy}imidazo[1,2-c]pyrimidin-7-yl)benzonitrile] cannot be ordered by pIC50: ≥ 7.30 for the first, ≥ 7.30 for the second.
